Biological target: T1, human TLL2 (Homo sapiens, UniProt Q9Y6L7)
T1 construct: amino acids 26-1015 of human TLL2 (NM_012465); made in house
T1 sequence (Q9Y6L7 150-1015): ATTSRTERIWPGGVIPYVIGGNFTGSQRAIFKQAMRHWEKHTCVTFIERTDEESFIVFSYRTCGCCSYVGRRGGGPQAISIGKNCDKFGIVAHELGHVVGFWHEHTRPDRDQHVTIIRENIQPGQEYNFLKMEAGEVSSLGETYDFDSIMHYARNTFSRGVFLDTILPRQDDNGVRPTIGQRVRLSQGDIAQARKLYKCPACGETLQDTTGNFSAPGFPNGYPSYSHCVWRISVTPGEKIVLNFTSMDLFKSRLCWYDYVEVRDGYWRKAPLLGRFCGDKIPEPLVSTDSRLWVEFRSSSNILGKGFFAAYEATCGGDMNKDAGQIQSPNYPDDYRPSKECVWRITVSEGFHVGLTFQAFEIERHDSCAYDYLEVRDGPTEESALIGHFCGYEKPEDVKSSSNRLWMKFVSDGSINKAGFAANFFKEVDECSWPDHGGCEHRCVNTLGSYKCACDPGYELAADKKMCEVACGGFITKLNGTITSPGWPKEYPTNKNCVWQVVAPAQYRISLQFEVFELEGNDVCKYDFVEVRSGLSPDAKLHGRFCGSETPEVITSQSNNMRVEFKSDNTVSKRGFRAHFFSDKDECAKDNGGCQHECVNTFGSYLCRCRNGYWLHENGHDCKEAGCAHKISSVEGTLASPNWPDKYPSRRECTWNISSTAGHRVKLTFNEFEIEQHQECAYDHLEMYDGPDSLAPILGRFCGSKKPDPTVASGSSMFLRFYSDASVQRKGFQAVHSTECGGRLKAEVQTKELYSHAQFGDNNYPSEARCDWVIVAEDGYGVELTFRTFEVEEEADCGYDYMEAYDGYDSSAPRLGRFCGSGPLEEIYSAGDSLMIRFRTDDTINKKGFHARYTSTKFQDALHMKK
Assay: Enzyme inhibition assay for human TLL2
Assay type: biochemical
Conditions: 18 nM TLL2, 5 μM promyostatin peptide substrate; read-out: pIC50, TLL2 enzyme inhibition assay (converted)
Source text: Buffer components are purchased from Sigma-Aldrich (St. Louis, Mo.) or an equivalent supplier. The promyostatin peptide substrate is custom synthesized by American Peptide Company (Sunnyvale, Calif.) using the myostatin protein sequence (Uniprot accession number 014793) surrounding the cleavage site reviewed in Hopkins, D. R., et al., 2007 Matrix Biology, 26, 508-523. The procollagen peptide substrate used in the high enzyme BMP1 cleavage assay is custom synthesized by 21st Century Biochemicals (Marlboro, Mass.) using the procollagen Iα protein sequence (Uniprot accession number P02452) surrounding the cleavage site reviewed in Hopkins, D. R., et al., 2007 Matrix Biology, 26, 508-523.
The DNA sequence encoding amino acids 26-1015 of human TLL2 (NM_012465) is PCR amplified from DNA template with the human RAGE signal sequence at the N-terminus and Avi-6×His epitope tags at the C-terminus ([…]). […]
Inhibition of human TLL1 and TLL2 recombinant enzymes is measured in 10 ul endpoint assays in 384-well format using the same promyostatin peptide substrate employed in the above Enzyme Inhibition Assay for human BMP1. […] TLL1 and TLL2 reactions are quenched with 5 μl of 0.5 M EDTA and plates are read on a ViewLux (Perkin Elmer) multilabel plate reader using a 480 nm excitation filter and 540 nm emission filter. […]

IC50: < 794 nM
Compound: CCCCC[C@@H](C(=O)NCNC(=O)c1ccc(-c2ccc(C(=O)O)cc2)o1)[C@@H](CC)N(O)C=O [WO2015/104684 Example 71, 4-(5-((((R)-2-((R)-1-(N-hydroxyformamido)propyl)heptanamido)methyl)carbamoyl)furan-2-yl)benzoic acid]

From US20180362485A1, “N-HYDROXYFORMAMIDE COMPOUNDS AND COMPOSITIONS COMPRISING THEM FOR USE AS BMP l, TLL1 AND/OR TLL2 INHIBITORS” (GlaxoSmithKline Intellectual Property (No. 2) Limited, priority 2015, published 2018)
